Experimental data reported in patent US20250129334A1, “LINEAGE SPECIFICATION DURING STEM CELL TRANSITION” (Amniotics AB, priority 2021, published 2025).

Tests used:
iPSC-CD34+ = assay: NK cell cytotoxic degranulation (CD107) with or without K562 co-culture; assay type: cell-based, human; details: absence of K562; DCA 10 mM, CP 2.5 μM, cholesterol 0.5x
Description: NK cell anti-tumour activity can occur via cytotoxic degranulation. CD107 is a marker that is present in the cytotoxic vesicles of NK cells, and so is not expressed on the cell surface of inactivated NK cells. However, upon NK cell activation and degranulation, the CD107 target becomes detectable on the cell surface. Therefore, the level of CD107 detected on NK cells correlates with cytotoxic degranulation. In this assay, several exemplary metabolic regulators were used to assess cytotoxic degranulation in a co-culture assay with K562 cells (an exemplary cancer cell model). As a negative control, iPSC-CD34^+ untreated with a metabolic regulator were used, in which a basal level of 3.27% of degranulated NK cells (CD3^−CD56^+CD16^+CD107^+ cells) were observed (FIG. 16A, top panel).

HE cells [1] = assay: Transplantation of treated HE cells into irradiated NSG mice; assay type: in vivo
Protocol: Sorted human HE cells (350,000) were mixed with OP9-DL1 stroma (60,000) and subcultured for 3 days with or without DCA (3 mM) on Matrigel (16 μg/cm^2, Corning)-coated 12-well plates in HE medium (32). Between 100,000-150,000 cells from control or DCA samples were transplanted into sub lethally irradiated (300 cGy) 8-week-old female NOD/Cg-Prkdc^scid Il2^tm1Wj1/SzJ mice (NSG, The Jackson Laboratory) together with 20,000 whole BM support cells from C57BV6.SJL mice (CD45.1^+/CD45.2^+, in house breeding). Cells were transplanted in single cell solution in 250 μL PBS with 2% FBS through intravenous tail vein injection. Drinking water of transplanted NSG mice was supplemented with ciprofloxacin (125 mg/L, HEXAL) for 3 weeks after transplantation to prevent infection. Mice were housed in a controlled environment with 12-hour light-dark cycles with chow and water provided ad libitim. Experiments and animal care were performed in accordance with the Lund University Animal Ethical Committee.
Peripheral blood (PB) was collected from the tail vein into EDTA-coated microvette tubes (Sarstedt, Cat #20.1341.100). […]
Bone marrow was analyzed at the 12-week transplantation endpoint. […]

[2] = tested on: HBE1, HBG1-2, HBA1-2 transcripts; assay: Globin transcript q-PCR in CFU colonies; assay type: cell-based, human; details: normalized to KLF1, UK5099 10 μM
Protocol: Subcultured HE cells were treated with StemPro Accutase Cell Dissociation Reagent for 2 minutes at 37° C. and dissociated cells were resuspended in 3 ml Methocult H4230 (STEMCELL Technologies, France) (prepared according to manufacturer's instructions, with 20 mL Iscove's Modified Dulbecco's Medium containing 2.5 μg hSCF, 5 μg GM-CSF, 2.5 μg IL-3 and 500 U EPO). Each mixture was divided onto 2 wells of a non-tissue culture treated 6-well plate. Following a 12-day incubation in a humidified incubator at 37° C., 5% CO2, 20% O2, colonies were morphologically distinguished and scored. For globin analysis, colonies in Methocult wells were harvested with PBS, washed thoroughly and frozen in RLT buffer with β-mercaptoethanol. Following RNA extraction and RT (Qiagen), gene expression was assessed with taqman probes by q-PCR. The taqman probes used for this assay are HBA1/2 (Hs00361191_g1), HBE1 (Hs00362216_m1), HBG2/1 (Hs00361131_g1) and KLF1 (Hs00610592_m1).

HE cells [3] = assay: Lymphoid (NK) differentiation assay on OP9-DL1 stroma; assay type: cell-based, human; details: 3-day treatment, 35-day co-culture; UK5099 10 μM, DCA 3 mM
Protocol: Subculture day 3 HE cells cultured in the presence of UK5099 (10 μM) or DCA (3 mM or 10 mM), as indicated, were collected after a 2-minute incubation at 37° C. with StemPro Accutase Cell Dissociation Reagent and seeded onto 80% confluent OP9-DL1 stroma. Cells were cultured in OP9 medium (OptiMEM medium with Glutamax (Invitrogen) with 10% FCS, 1% penicillin-streptomycin solution (Thermo Fisher Scientific) and 1% 2-mercaptoethanol (Invitrogen)) with SCF (10 ng/ml), FLT3-L (10 ng/ml), IL-2 (5 ng/ml), IL-7 (5 ng/ml, first 15 days only) and IL-15 (10 ng/ml) with passaging onto new OP9-DL1 stroma every week, as described previously (Renoux, V. M. et al. Identification of a Human Natural Killer Cell Lineage-Restricted Progenitor in Fetal and Adult Tissues. Immunity 43, 394-407 (2015)). At day 35 of co-culture, cells were analyzed on a BD LSRFortessa.

Structure (SMILES) | degranulated NK cells (CD3-CD56+CD16+CD107+ cells) (iPSC-CD34+) | increase in degranulated NK cells vs untreated control (iPSC-CD34+) | increase of CLP (common lymphoid progenitor) (HE cells [1]; FIG. 3, n, BM week 12) [fold] | human CD45+ cells in the peripheral blood (HE cells [1]; week 8, 3-day DCA-treated HE cells) | HBE1 (embryonic) globin transcripts [2] | HBG1-2 (fetal) globin transcripts [2] | HBA1-2 (adult globin) expression ([2]; DCA 3 mM) | NK cell differentiation (CD45+CD56+ cells) (HE cells [3])
O=C(O)C(Cl)Cl [DCA, dichloroacetate] | 13.8 % of the population | more than 4 fold | 3 | around 1% | – | – | – | –
N#CC(=Cc1cn(-c2ccccc2)c2ccccc12)C(=O)O [UK5099, 2-Cyano-3-(1-phenyl-1H-indol-3-yl)-2-propenoic acid] | – | – | – | – | significant increase | significant increase | did not have an effect | impaired NK cell formation
